From PMC11995724, “Antibiotic target discovery by integrated phenotypic and activity-based profiling of electrophilic fragments” (Cell chemical biology, 2025) come the findings set out here.

As usually defined, the viability is a read-out of living cells in per cent, often relative to untreated cells.

This data set can be described thus: in vitro. Particulars: human, hek293t cells.
In the case of `CC(CO)N(Cc1ccccc1Cl)C(=O)CCl` (centres unmarked) [6-D17, 2-chloro-N-[(2-chlorophenyl)methyl]-N-(1-hydroxypropan-2-yl)acetamide], the viability at 48 h, 25 µM came out at 1.39%. To `CC(Cl)C(=O)N(CCc1ccc(F)cc1F)C(C)C` (centres unmarked) [6-D18, 2-chloro-N-[2-(2,4-difluorophenyl)ethyl]-N-(propan-2-yl)propanamide] belongs 101%; to `Cc1ccc(C2CS(=O)(=O)CCN2C(=O)C(C)Cl)o1` (centres unmarked) [6-D19, 4-(2-chloropropanoyl)-3-(5-methylfuran-2-yl)-1lambda6-thiomorpholine-1,1-dione], 107%; to `CC(Cl)C(=O)N[C@H]1C[C@H](Cn2cncn2)C1` (some centres unmarked) [6-D20, 2-chloro-N-[(1r,3r)-3-[(1H-1,2,4-triazol-1-yl)methyl]cyclobutyl]propanamide], 105%.

With `COC1(CNC(=O)CCl)CCC(C(F)F)CC1` (centres unmarked) [6-D21, 2-chloro-N-{[4-(difluoromethyl)-1-methoxycyclohexyl]methyl}acetamide], the viability at 48 h, 25 µM turned out to be 52.3%.

On to `CC(Cl)C(=O)N(Cc1ccccc1)C1C=CS(=O)(=O)C1` (centres unmarked) [6-D22, N-benzyl-2-chloro-N-(1,1-dioxo-2,3-dihydro-1lambda6-thiophen-3-yl)propanamide], for which the viability at 48 h, 25 µM stood at 98%. The result for `Cc1ccc(CN(C(=O)CCl)C2CC2)o1` [6-E03, 2-chloro-N-cyclopropyl-N-[(5-methylfuran-2-yl)methyl]acetamide] reads 0.647%; that for `O=C(CCl)NCc1[nH]nc2c1CCCC2` [6-E04, 2-chloro-N-[(4,5,6,7-tetrahydro-2H-indazol-3-yl)methyl]acetamide], 59.9%. For `CC(Cl)C(=O)NC(=O)NCc1cccs1` (centres unmarked) [6-E05, 3-(2-chloropropanoyl)-1-[(thiophen-2-yl)methyl]urea], the viability at 48 h, 25 µM stood at 106%. As to `Cc1c(NC(=O)C(C)Cl)c(=O)n(-c2ccccc2)n1C` (centres unmarked) [6-E06, 2-chloro-N-(1,5-dimethyl-3-oxo-2-phenyl-2,3-dihydro-1H-pyrazol-4-yl)propanamide], the viability at 48 h, 25 µM came to 109%. The result for `CC(Cl)C(=O)N1CC(=O)Nc2ccccc21` (centres unmarked) [6-E07, 4-(2-chloropropanoyl)-1,2,3,4-tetrahydroquinoxalin-2-one] reads 117%; that for `CC(Cl)C(=O)Nc1cccc([N+](=O)[O-])c1` (centres unmarked) [6-E08, 2-chloro-N-(3-nitrophenyl)propanamide], 98.7%. To `O=C(CCl)Nc1cc(-n2nnnc2C2CC2)ccc1F` [6-E09, 2-chloro-N-[5-(5-cyclopropyl-1H-1,2,3,4-tetrazol-1-yl)-2-fluorophenyl]acetamide] belongs 2.11%; to `Cc1cc(C)c(NC(=O)C(C)Cl)c(Cl)c1` (centres unmarked) [6-E10, 2-chloro-N-(2-chloro-4,6-dimethylphenyl)propanamide], 109%. To `CC(Cl)C(=O)NCCC1=CCCCC1` (centres unmarked) [6-E11, 2-chloro-N-[2-(cyclohex-1-en-1-yl)ethyl]propanamide] belongs 99%; to `O=C(CCl)NC(c1ccccc1)C1CCCCC1` (centres unmarked) [6-E12, 2-chloro-N-[cyclohexyl(phenyl)methyl]acetamide], 1.12%. For `Cc1nnnn1-c1ccc(F)c(NC(=O)CCl)c1` [6-E13, 2-chloro-N-[2-fluoro-5-(5-methyl-1H-1,2,3,4-tetrazol-1-yl)phenyl]acetamide], the viability at 48 h, 25 µM was 1.24%. Regarding `O=C(CCl)NCCc1cccc2ccccc12` [6-E14, 2-chloro-N-[2-(naphthalen-1-yl)ethyl]acetamide], the viability at 48 h, 25 µM is 4.85%. To `CCN(C(=O)CCl)c1ccccc1` [6-E15, 2-chloro-N-ethyl-N-phenylacetamide] belongs 1.62%; to `CCCC(=O)N1CCC(NC(=O)CCl)c2ccccc21` (centres unmarked) [6-E16, N-(1-butanoyl-1,2,3,4-tetrahydroquinolin-4-yl)-2-chloroacetamide], 17.5%.
